Data: ChEMBL document CHEMBL1142081, “Evaluation of the in vivo activity of tribendimidine against Schistosoma mansoni, Fasciola hepatica, Clonorchis sinensis, and Opisthorchis viverrini” (2007)
The source made the active and inactive calls. The calls are words filed in the database; no cut-off is given here.

Assays:
[1] = Reduction of worm burden in Opisthorchis viverrini infected Syrian Gold hamster at 400 mg/kg, po relative to control; type: functional; set-up: scale not given: the % may be the effect or the level left
Fasciola hepatica [2] = assay: Reduction of worm burden in Fasciola hepatica infected Wistar rat at 800 mg/kg, po relative to control; type: functional; set-up: scale not given: the % may be the effect or the level left
Schistosoma mansoni [3] = assay: Reduction of total worm burden in Schistosoma mansoni Liberian infection NMRI mouse at 800 mg/kg, po relative to control; type: functional; set-up: scale not given: the % may be the effect or the level left
[4] = Reduction of worm burden in Clonorchis sinensis infected Wistar rat at 75 mg/kg, po relative to control; type: functional; set-up: scale not given: the % may be the effect or the level left
Schistosoma mansoni [5] = assay: Reduction of female worm burden in Schistosoma mansoni Liberian infected NMRI mouse at 800 mg/kg, po relative to control; type: functional; set-up: scale not given: the % may be the effect or the level left
[6] = Reduction of worm burden in Clonorchis sinensis infected Wistar rat at 150 mg/kg, po relative to control; type: functional; set-up: scale not given: the % may be the effect or the level left
Fasciola hepatica [7] = assay: Effect on Fasciola hepatica infected Wistar rat assessed as infection cured rats at 800 mg/kg, po relative to control; type: functional, organism-based; set-up: dose 800 mg/kg
[8] = Reduction of worm burden in Opisthorchis viverrini infected Syrian Gold hamster at 200 mg/kg, po relative to control; type: functional; set-up: scale not given: the % may be the effect or the level left
Schistosoma mansoni [9] = assay: Effect on Schistosoma mansoni Liberian infected NMRI mouse assessed as infection cured mice at 400 mg/kg, po relative to control

Q: Which results are given for C/C(=N/c1ccc(/N=C/c2ccc(/C=N/c3ccc(/N=C(/C)N(C)C)cc3)cc2)cc1)N(C)C [TRIBENDIMIDINE]?
A: Activity [1]: 95.7%; Activity (Fasciola hepatica [2]): 0%; Activity (Schistosoma mansoni [3]): 0%; Activity [4]: 68.9%; Activity (Schistosoma mansoni [5]): 0%; Activity [6]: 99.1%; Activity (Fasciola hepatica [7]): Active; Activity [8]: 61.4%; Activity (Schistosoma mansoni [9]): Active
